# Reference: patent US10106535B2, “Histone deacetylase inhibitors and compositions and methods of use thereof” (CHDI Foundation, Inc., priority 2013, dated 2018)
# Test system: cellular histone deacetylase enzymatic activity in Jurkat E6-1 cells
# Test: Inhibition of cellular HDAC activity in Jurkat E6-1 cells, fluorogenic substrate Boc-Lys(Tfa)-AMC
# Format: cell-based
# Settings: Homo sapiens, read-out: Cell IC50
# Text: Example 50: Analysis of Inhibition of Cellular HDAC Activity with Class IIa Histone Deacetylase (HDAC) Inhibitors
# The potency of Class IIa Histone Deacetylase (HDAC) inhibitors is quantified by measuring the cellular histone deacetylase enzymatic activity using the fluorogenic substrate, Boc-Lys(Tfa)-AMC. After penetration in Jurkat E6-1 cells, the substrate is deacetylated to Boc-Lys-AMC. After cell lysis and cleavage by trypsin, the fluorophore AMC is released from the deacetylated substrate only. The fluorescence of the sample is directly related to the histone deacetylase activity in the sample.
# Jurkat E6.1 cells are cultured according to standard cell culture protocols in Jurkat E6.1 Growth Media (RPMI without phenol red, 10% FBS, 10 mM HEPES, and 1 mM Sodium Pyruvate). Jurkat E6.1 cells are counted using a Coulter Counter and resuspended in Jurkat E6.1 growth media at a concentration of 75,000 cells/35 μl. 35 μl or 75,000 cells is seeded into Greiner microtitre assay plates. The plates are then incubated at 37° C. and 5% CO2 while other assay components are being prepared.
# Serial dilutions of the HDAC inhibitors and control reference compound (1-(5-(3-((4-(1,3,4-oxadiazol-2-yl)phenoxy)methyl)-1,2,4-oxadiazol-5-yl)thiophen-2-yl)-2,2,2-trifluoroethanone) are made by first resuspending the lyophilized compound to a final concentration of 10 mM in 100% DMSO. Stocks of 70 μl aliquots of the 10 mM compound in DMSO are prepared and stored at −20° C. From one stock aliquot of each compound to be tested and the reference compound, a 16-point serial dilution is prepared according to Table 1 using a 125 μl 16-channel Matrix multi-channel pipette.
# 2 μl (200×) of each diluted solution and each control (full activity: 100% DMSO alone or full inhibition 1 mM) is stamped into V-bottom polypropylene 384-well compound plates using either the Bravo, Janus, or 12.5 μl 16-channel Matrix multi-channel pipette. Each well with the 200× compound solution is diluted 1:20 by the addition of 38 μl Jurkat assay buffer+DMSO (9.5% DMSO, RPMI without phenol red, 0.09% FBS, 9 mM Hepes, and 0.9 mM Sodium Pyruvate equilibrated to room temperature)
# 5× (500 μM) substrate is prepared just prior to the addition to the assay. The 5× substrate is prepared by diluting a 100 mM Boc-Lys(Tfa)-AMC in DMSO solution 1:200 by adding it drop-wise to Jurkat assay medium (RPMI without phenol red, 0.1% FBS, 10 mM Hepes, and 1 mM Sodium Pyruvate equilibrated to 37° C.) while vortexing at slow speed to prevent precipitation.
# 10 ml of 3× lysis buffer is prepared with 8.8 ml of 3× stock lysis buffer (50 mM Tris-HCl, pH 8.0, 137 mM NaCl, 2.7 mM KCl, 1 mM MgCl2, 1% Nonidet P40 Substitute equilibrated to room temperature) and 1.2 ml of 3 mg/ml Trypsin equilibrated to room temperature.
# 5 μl of each solution of 1:20 diluted compound from above is transferred to the Greiner microtitre assay plates with 75,000 cells/well using the Bravo. Cells are then incubated for 2 hours at 37° C. and 5% CO2. The assay is then started by adding 10 μl of 5× (500 μM) substrate to the assay plate using either the Bravo or 16-channel Matrix multi-channel pipette. The cells are then incubated for 3 hours at 37° C. and 5% CO2. Next, 25 μl of 3× lysis buffer is added to each well using either the 125 μl 16 channel pipette or the Bravo. The assay plate is then incubated overnight (15-16 hours) at 37° C. and 5% CO2. The following day, the plates are shaken on an orbital shaker for 1 minute at 900 rpm. Finally the top read fluorescence (Excitation: 355 nm, Emission: 460 nm) is measured using PerkinElmer EnVision.
row,Compound,IC50 [µM]
1,"Cc1c(F)cccc1[C@]1(C(=O)NO)C=C(c2ccccc2)CC1 [Example 1, (R)-1-(3-fluoro-2-methylphenyl)-N-hydroxy-3-phenylcyclopent-2-enecarboxamide]",> 50
2,"Cc1c(F)cccc1[C@@]1(C(=O)NO)C=C(c2ccccc2)CC1 [Example 2, (S)-1-(3-fluoro-2-methylphenyl)-N-hydroxy-3-phenylcyclopent-2-enecarboxamide]",0.17
3,"Cc1ccccc1C1=C[C@@](C(=O)NO)(c2cccc(F)c2C)CC1 [Example 3, (R)-1-(3-fluoro-2-methyl-phenyl)-N-hydroxy-3-(o-tolyl)cyclopent-2-ene-1-carboxamide]",4.6
4,"Cc1ccccc1C1=C[C@](C(=O)NO)(c2cccc(F)c2C)CC1 [Example 4, (S)-1-(3-fluoro-2-methyl-phenyl)-N-hydroxy-3-(o-tolyl)cyclopent-2-ene-1-carboxamide]",0.36
5,"Cc1c(F)cccc1[C@]1(C(=O)NO)C=C(c2cncc(F)c2)CC1 [Example 5, (R)-1-(3-fluoro-2-methylphenyl)-3-(5-fluoropyridin-3-yl)-N-hydroxycyclopent-2-enecarboxamide]",6.8
6,"Cc1c(F)cccc1[C@@]1(C(=O)NO)C=C(c2cncc(F)c2)CC1 [Example 6, (S)-1-(3-fluoro-2-methylphenyl)-3-(5-fluoropyridin-3-yl)-N-hydroxycyclopent-2-enecarboxamide]",0.16
7,"Cc1c(F)cccc1[C@]1(C(=O)NO)C=C(c2cnccn2)CC1 [Example 7, (R)-1-(3-fluoro-2-methylphenyl)-N-hydroxy-3-(pyrazin-2-yl)cyclopent-2-ene carboxamide]",> 50
8,"Cc1c(F)cccc1[C@@]1(C(=O)NO)C=C(c2cnccn2)CC1 [Example 8, (S)-1-(3-fluoro-2-methylphenyl)-N-hydroxy-3-(pyrazin-2-yl)cyclopent-2-ene carboxamide]",15.7
9,"Cc1ncc(C2=C[C@@](C(=O)NO)(c3cccc(F)c3C)CC2)cn1 [Example 9, (R)-1-(3-fluoro-2-methylphenyl)-N-hydroxy-3-(2-methylpyrimidin-5-yl)cyclopent-2-enecarboxamide]",> 50
10,"Cc1c(F)cccc1[C@@]1(C(=O)NO)C=C(c2cncc(Cl)c2)CC1 [Example 11, (S)-3-(5-chloropyridin-3-yl)-1-(3-fluoro-2-methylphenyl)-N-hydroxycyclopent-2-enecarboxamide]",0.12
11,"Cc1c(F)cccc1[C@@]1(C(=O)NO)C=C(c2ccc3nccnc3c2)CC1 [Example 12, (S)-1-(3-fluoro-2-methylphenyl)-N-hydroxy-3-(quinoxalin-6-yl)cyclopent-2-enecarboxamide]",0.02
12,"Cc1c(F)cccc1[C@@]1(C(=O)NO)C=C(c2ccnc(C(F)(F)F)c2)CC1 [Example 13, (S)-1-(3-fluoro-2-methylphenyl)-N-hydroxy-3-(2-(trifluoromethyl)pyridin-4-yl)cyclopent-2-enecarboxamide]",0.27
13,"Cc1c(F)cccc1[C@@]1(C(=O)NO)C=C(c2cncnc2)CC1 [Example 14, (S)-1-(3-fluoro-2-methylphenyl)-N-hydroxy-3-(pyrimidin-5-yl)cyclopent-2-enecarboxamide]",0.36
14,"Cc1c(F)cccc1[C@@]1(C(=O)NO)C=C(c2ccc(F)cn2)CC1 [Example 15, (S)-1-(3-fluoro-2-methylphenyl)-3-(5-fluoropyridin-2-yl)-N-hydroxycyclopent-2-enecarboxamide]",0.31
15,"Cc1c(F)cccc1[C@@]1(C(=O)NO)C=C(c2ccc(C(F)(F)F)nc2)CC1 [Example 16, (S)-1-(3-fluoro-2-methylphenyl)-N-hydroxy-3-(6-(trifluoromethyl)pyridin-3-yl)cyclopent-2-enecarboxamide]",0.1
16,"Cc1c(F)cccc1[C@@]1(C(=O)NO)C=C(c2cncc(C(F)(F)F)c2)CC1 [Example 17, (S)-1-(3-fluoro-2-methylphenyl)-N-hydroxy-3-(5-(trifluoromethyl)pyridin-3-yl)cyclopent-2-enecarboxamide]",0.2
17,"Cc1c(F)cccc1[C@@]1(C(=O)NO)C=C(c2cnn(C(F)F)c2)CC1 [Example 18, (S)-3-(1-(difluoromethyl)-1H-pyrazol-4-yl)-1-(3-fluoro-2-methylphenyl)-N-hydroxycyclopent-2-enecarboxamide]",0.16
18,"Cc1c(F)cccc1[C@@]1(C(=O)NO)C=C(c2cc(F)cnc2C2CC2)CC1 [Example 19, (S)-3-(2-cyclopropyl-5-fluoropyridin-3-yl)-1-(3-fluoro-2-methylphenyl)-N-hydroxycyclopent-2-enecarboxamide]",0.5
19,"Cc1c(F)cccc1[C@@]1(C(=O)NO)C=C(c2ccc3nc(C(F)(F)F)cnc3c2)CC1 [Example 20, (S)-1-(3-fluoro-2-methylphenyl)-N-hydroxy-3-(2-(trifluoromethyl)quinoxalin-6-yl)cyclopent-2-enecarboxamide]",0.14
20,"Cc1c(F)cccc1[C@@]1(C(=O)NO)C=C(c2ccn3ccnc3c2)CC1 [Example 21, (S)-1-(3-fluoro-2-methylphenyl)-N-hydroxy-3-(imidazo[1,2-a]pyridin-7-yl)cyclopent-2-enecarboxamide]",0.06
21,"Cc1c(F)cccc1[C@@]1(C(=O)NO)C=C(c2ccc3onc(C)c3c2)CC1 [Example 22, (S)-1-(3-fluoro-2-methylphenyl)-N-hydroxy-3-(3-methylbenzo[d]isoxazol-5-yl)cyclopent-2-enecarboxamide]",0.06
22,"COc1ncc(C2=C[C@](C(=O)NO)(c3cccc(F)c3C)CC2)cc1F [Example 23, (S)-1-(3-fluoro-2-methylphenyl)-3-(5-fluoro-6-methoxypyridin-3-yl)-N-hydroxycyclopent-2-enecarboxamide]",0.22
23,"Cc1c(F)cccc1[C@@]1(C(=O)NO)C=C(c2cnc(C3CC3)nc2)CC1 [Example 24, (S)-3-(2-cyclopropylpyrimidin-5-yl)-1-(3-fluoro-2-methylphenyl)-N-hydroxycyclopent-2-enecarboxamide]",0.08
24,"Cc1ccc(C2=C[C@](C(=O)NO)(c3cccc(F)c3C)CC2)cn1 [Example 25, (S)-1-(3-fluoro-2-methylphenyl)-N-hydroxy-3-(6-methylpyridin-3-yl)cyclopent-2-enecarboxamide]",0.12
25,"Cc1ncc(C2=C[C@](C(=O)NO)(c3cccc(F)c3C)CC2)cc1Cl [Example 26, (S)-3-(5-chloro-6-methylpyridin-3-yl)-1-(3-fluoro-2-methylphenyl)-N-hydroxycyclopent-2-enecarboxamide]",0.08
26,"Cc1c(F)cccc1[C@@]1(C(=O)NO)C=C(c2ccnn2C)CC1 [Example 27, (S)-1-(3-fluoro-2-methylphenyl)-N-hydroxy-3-(1-methyl-1H-pyrazol-5-yl)cyclopent-2-enecarboxamide]",0.33
27,"Cc1c(F)cccc1[C@@]1(C(=O)NO)C=C(c2cnn(CC(F)(F)F)c2)CC1 [Example 28, (S)-1-(3-fluoro-2-methylphenyl)-N-hydroxy-3-(1-(2,2,2-trifluoroethyl)-1H-pyrazol-4-yl)cyclopent-2-enecarboxamide]",0.16
28,"Cc1c(F)cccc1[C@@]1(C(=O)NO)C=C(c2cccc3cnsc23)CC1 [Example 29, (S)-3-(benzo[d]isothiazol-7-yl)-1-(3-fluoro-2-methylphenyl)-N-hydroxycyclopent-2-enecarboxamide]",0.2
29,"O=C(NO)C1(c2ccccc2)CC=CC1 [Example 30, N-hydroxy-1-phenyl-cyclopent-3-enecarboxamide]",> 50
30,"O=C(NO)C1(c2ccccc2F)CC=CC1 [Example 31, 1-(2-fluorophenyl)-N-hydroxy-cyclopent-3-enecarboxamide]",44.5
